In patent publication US11608337B2, “Heterocyclic compounds as immunomodulators” (Incyte Corporation, priority 2016, dated 2023):

Molecular target: PD-1/PD-L1 protein/protein interaction (Homo sapiens (Human), UniProt Q9NZQ7)
Test: PD-1/PD-L1 Homogeneous Time-Resolved Fluorescence (HTRF) Binding Assay
Conditions: recombinant human PD-L1 (19-238) His-tag, human PD-1 (25-167) Fc tag; 25° C., PBS pH 7.4
Description: Example A. PD-1/PD-L1 Homogeneous Time-Resolved Fluorescence (HTRF) Binding Assay
The assays were conducted in a standard black 384-well polystyrene plate with a final volume of 20 μL. Inhibitors were first serially diluted in DMSO and then added to the plate wells before the addition of other reaction components. The final concentration of DMSO in the assay was 1%. The assays were carried out at 25° C. in the PBS buffer (pH 7.4) with 0.05% Tween-20 and 0.1% BSA. Recombinant human PD-L1 protein (19-238) with a His-tag at the C-terminus was purchased from AcroBiosystems (PD1-H5229). Recombinant human PD-1 protein (25-167) with Fc tag at the C-terminus was also purchased from AcroBiosystems (PD1-H5257). PD-L1 and PD-1 proteins were diluted in the assay buffer and 10 μL was added to the plate well. Plates were centrifuged and proteins were preincubated with inhibitors for 40 minutes. The incubation was followed by the addition of 10 μL of HTRF detection buffer supplemented with Europium cryptate-labeled anti-human IgG (PerkinElmer-AD0212) specific for Fc and anti-His antibody conjugated to SureLight®-Allophycocyanin (APC, PerkinElmer-AD0059H). After centrifugation, the plate was incubated at 25° C. for 60 min. before reading on a PHERAstar FS plate reader (665 nm/620 nm ratio). Final concentrations in the assay were […], 10 nM PD-L1, 1 nM europium anti-human IgG and 20 nM anti-His-Allophycocyanin. IC50 determination was performed by fitting the curve of percent control activity versus the log of the inhibitor concentration using the GraphPad Prism 5.0 software.
Data obtained for the Example compounds using the PD-1/PD-L homogenous time-resolved fluorescence (HTRF) binding assay described in Example A is provided in Table 1.

Chain of PD-1/PD-L1 protein/protein interaction (Q9NZQ7 19-238): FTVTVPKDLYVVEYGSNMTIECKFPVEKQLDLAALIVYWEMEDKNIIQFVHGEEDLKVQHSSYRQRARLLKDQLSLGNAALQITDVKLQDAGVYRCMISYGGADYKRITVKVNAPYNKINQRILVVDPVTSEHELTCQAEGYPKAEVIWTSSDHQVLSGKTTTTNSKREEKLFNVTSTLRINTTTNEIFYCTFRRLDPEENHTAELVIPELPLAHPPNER

| SMILES | IC50 |
| --- | --- |
| Cc1c(-c2ccccc2)cccc1-c1nc2c(s1)CN(CCO)CC2 [Example 4, 2-[2-(2-methylbiphenyl-3-yl)-6,7-dihydro[1,3]thiazolo[5,4-c]pyridin-5(4H)-yl]ethanol] | ≤ 100 nM |
| COc1cc(OC)cc(-c2cccc(-c3nc4c(s3)CNCC4)c2C)c1 [Example 34, 2-(3′,5′-dimethoxy-2-methylbiphenyl-3-yl)-4,5,6,7-tetrahydro[1,3]thiazolo[5,4-c]pyridine] | ≤ 100 nM |
| Cc1c(-c2ccsc2)cccc1-c1nc2c(s1)CNCC2 [Example 27, 2-[2-methyl-3-(3-thienyl)phenyl]-4,5,6,7-tetrahydro[1,3]thiazolo[5,4-c]pyridine] | 100 to 500 nM |
| Cc1c(-c2ccccc2)cccc1-c1nc2c(s1)CN(C1CCC(CC#N)CC1)CC2 (centres unmarked) [Example 11, {4-[2-(2-methylbiphenyl-3-yl)-6,7-dihydro[1,3]thiazolo[5,4-c]pyridin-5(4H)-yl]cyclohexyl}acetonitrile] | 100 to 500 nM |
| Cc1c(-c2ccccc2)cccc1-c1nc2c(s1)CN(C1CCC(C(=O)O)CC1)CC2 (centres unmarked) [Example 7, 4-[2-(2-methylbiphenyl-3-yl)-6,7-dihydro[1,3]thiazolo[5,4-c]pyridin-5(4H)-yl]cyclohexanecarboxylic acid] | ≤ 100 nM |
| COc1cc(-c2cccc(-c3nc4c(s3)CNCC4)c2C)ccn1 [Example 30, 2-[3-(2-methoxypyridin-4-yl)-2-methylphenyl]-4,5,6,7-tetrahydro[1,3]thiazolo[5,4-c]pyridine] | 100 to 500 nM |
| COc1cc(OC)c(F)c(-c2cccc(-c3nc4c(s3)CNCC4)c2C)c1F [Example 37, 2-(2′,6′-difluoro-3′,5′-dimethoxy-2-methylbiphenyl-3-yl)-4,5,6,7-tetrahydro[1,3]thiazolo[5,4-c]pyridine] | ≤ 100 nM |
| Cc1c(C2=CCOCC2)cccc1-c1nc2c(s1)CNCC2 [Example 29, 2-[3-(3,6-dihydro-2H-pyran-4-yl)-2-methylphenyl]-4,5,6,7-tetrahydro[1,3]thiazolo[5,4-c]pyridine] | 500 to 10000 nM |
| Cc1c(-c2nc3c(s2)CNCC3)cccc1-c1cccc2c1cnn2C [Example 40, 2-[2-methyl-3-(1-methyl-1H-indazol-4-yl)phenyl]-4,5,6,7-tetrahydro[1,3]thiazolo[5,4-c]pyridine] | ≤ 100 nM |
| N#Cc1c(-c2ccc3c(c2)OCCO3)ccnc1-c1nc2c(s1)CNCC2 [Example 35, 4-(2,3-dihydro-1,4-benzodioxin-6-yl)-2-(4,5,6,7-tetrahydro[1,3]thiazolo[5,4-c]pyridin-2-yl)nicotinonitrile] | 100 to 500 nM |

The next lines start with the values.

| IC50 | SMILES |
| --- | --- |
| 500 to 10000 nM | Cc1c(-c2ccccc2)cccc1-c1nc2c(s1)CCNC2 [Example 1, 2-(2-methylbiphenyl-3-yl)-4,5,6,7-tetrahydro[1,3]thiazolo[4,5-c]pyridine] |
| ≤ 100 nM | Cc1c(-c2ccccc2)cccc1-n1cc2c(n1)CNCC2 [Example 18, 2-(2-methylbiphenyl-3-yl)-4,5,6,7-tetrahydro-2H-pyrazolo[3,4-c]pyridine] |
| ≤ 100 nM | Cc1c(-c2ccccc2)cccc1-c1nc2c(s1)CNCC2 [Example 2, 2-(2-methylbiphenyl-3-yl)-4,5,6,7-tetrahydro[1,3]thiazolo[5,4-c]pyridine] |
| ≤ 100 nM | Cc1c(-c2ccccc2)cccc1-c1nc2c(o1)CCNC2 [Example 23, 2-(2-methylbiphenyl-3-yl)-4,5,6,7-tetrahydro[1,3]oxazolo[4,5-c]pyridine] |
| 100 to 500 nM | Cc1c(-c2ccccc2)cccc1-c1nc2n(n1)CCNC2 [Example 25, 2-(2-methylbiphenyl-3-yl)-5,6,7,8-tetrahydro[1,2,4]triazolo[1,5-a]pyrazine] |
| 100 to 500 nM | Cc1c(-c2ccccc2)cccc1-c1cc2n(n1)CCNC2 [Example 12, 2-(2-methylbiphenyl-3-yl)-4,5,6,7-tetrahydropyrazolo[1,5-a]pyrazine] |
| 500 to 10000 nM | Cc1c(-c2ccccc2)cccc1-c1cn2c(n1)CNCC2 [Example 20, 2-(2-methylbiphenyl-3-yl)-5,6,7,8-tetrahydroimidazo[1,2-a]pyrazine] |
